Source: US11866430B2, “Naphthyridinone compounds useful as T cell activators” (priority 2018, dated 2024)

Columns and labels:
human DGKζ = human DGKζ (Homo sapiens (Human), UniProt Q13574); test: DGKζ assay (detergent/lipid micelle substrate); format: biochemical; details: detergent/lipid micelle substrate; read-out: DGKζ IC50
Summary of the method: (§1)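 Full-length human DGKα or DGKζ (C-terminal His tag, Sf9-expressed; 20 nM 4× stock) was preincubated 10 min at room temperature with PS/DAG octyl glucoside micelles in MOPS pH 7.5 buffer with MgCl2, CaCl2 and DTT. It was then started with ATP (300 uM addition) and run for 1 hr, with ADP-Glo luminescence read-out.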

[1] = tested on: pre-activated CD4 T cells and Raji cells; test: Raji CD4 T Cell IL2 Assay; format: cell-based; details: Homo sapiens, Raji
human DGKα = human DGKα (Homo sapiens (Human), UniProt P23743); test: biochemical; details: detergent/lipid micelle substrate; read-out: DGKα IC50
Summary of the method: as §1

Chain of human DGKα (P23743 other isoform, or with tags, fused parts or gaps): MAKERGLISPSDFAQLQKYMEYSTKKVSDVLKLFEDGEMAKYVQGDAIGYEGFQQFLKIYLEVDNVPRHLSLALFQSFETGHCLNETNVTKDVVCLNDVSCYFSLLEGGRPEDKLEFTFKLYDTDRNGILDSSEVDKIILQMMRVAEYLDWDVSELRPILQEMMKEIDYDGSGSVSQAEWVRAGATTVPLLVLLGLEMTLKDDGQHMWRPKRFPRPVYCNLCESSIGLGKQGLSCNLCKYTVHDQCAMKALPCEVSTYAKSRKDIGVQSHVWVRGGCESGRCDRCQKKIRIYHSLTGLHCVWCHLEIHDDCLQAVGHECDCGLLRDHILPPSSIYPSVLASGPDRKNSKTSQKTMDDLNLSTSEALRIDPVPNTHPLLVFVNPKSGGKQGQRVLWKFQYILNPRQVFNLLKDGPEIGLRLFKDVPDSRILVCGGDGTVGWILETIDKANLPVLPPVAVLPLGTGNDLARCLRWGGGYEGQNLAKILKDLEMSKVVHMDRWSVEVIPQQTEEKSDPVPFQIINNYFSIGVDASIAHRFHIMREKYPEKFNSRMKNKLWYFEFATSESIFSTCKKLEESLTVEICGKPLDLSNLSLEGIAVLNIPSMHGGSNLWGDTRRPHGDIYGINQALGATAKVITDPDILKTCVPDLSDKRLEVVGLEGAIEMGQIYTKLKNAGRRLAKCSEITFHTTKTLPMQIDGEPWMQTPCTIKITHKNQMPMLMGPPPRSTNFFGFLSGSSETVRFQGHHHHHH
Chain of human DGKζ (Q13574 other isoform, or with tags, fused parts or gaps): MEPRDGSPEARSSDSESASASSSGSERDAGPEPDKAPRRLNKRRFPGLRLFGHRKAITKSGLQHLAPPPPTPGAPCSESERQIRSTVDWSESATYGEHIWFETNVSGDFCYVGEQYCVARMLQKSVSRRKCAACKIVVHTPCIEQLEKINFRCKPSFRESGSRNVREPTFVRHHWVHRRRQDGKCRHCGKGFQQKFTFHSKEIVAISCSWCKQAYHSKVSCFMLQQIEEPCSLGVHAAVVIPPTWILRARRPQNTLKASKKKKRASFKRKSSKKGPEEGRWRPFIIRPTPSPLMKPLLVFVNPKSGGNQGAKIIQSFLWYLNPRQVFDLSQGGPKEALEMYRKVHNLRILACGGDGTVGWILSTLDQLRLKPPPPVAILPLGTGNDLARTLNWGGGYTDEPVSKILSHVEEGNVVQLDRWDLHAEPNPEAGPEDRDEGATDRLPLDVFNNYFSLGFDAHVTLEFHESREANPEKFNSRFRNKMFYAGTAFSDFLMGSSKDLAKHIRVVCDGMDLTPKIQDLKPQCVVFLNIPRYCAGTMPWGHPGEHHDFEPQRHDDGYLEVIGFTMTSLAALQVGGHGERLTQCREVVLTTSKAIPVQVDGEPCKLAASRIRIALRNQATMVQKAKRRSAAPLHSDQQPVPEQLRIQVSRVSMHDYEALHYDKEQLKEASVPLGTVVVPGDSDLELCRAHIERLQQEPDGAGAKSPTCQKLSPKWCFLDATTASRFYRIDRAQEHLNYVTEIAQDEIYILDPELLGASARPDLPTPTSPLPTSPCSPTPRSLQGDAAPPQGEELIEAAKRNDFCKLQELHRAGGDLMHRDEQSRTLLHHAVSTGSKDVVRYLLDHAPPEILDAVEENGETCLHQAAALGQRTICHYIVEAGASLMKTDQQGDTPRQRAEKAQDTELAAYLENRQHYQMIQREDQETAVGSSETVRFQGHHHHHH

Row | SMILES | IC50 (human DGKζ) [nM] | IC50 [1] [nM] | IC50 (human DGKα) [nM]
1 | Cn1c(=O)c(C#N)c(N2CCN(Cc3c(O)cccc3Cl)CC2)c2nc(Cl)ccc21 [Example 267, 6-chloro-4-{4-[(2-chloro-6-hydroxyphenyl)methyl]piperazin-1-yl}-1-methyl-2-oxo-1,2-dihydro-1,5-naphthyridine-3-carbonitrile] | > 240000 | 48 | 310
2 | Cn1c(=O)c(C#N)c(N2CCN(Cc3cccc(Br)c3O)CC2)c2nc(Cl)ccc21 [Example 268, 4-{4-[(3-bromo-2-hydroxyphenyl)methyl]piperazin-1-yl}-6-chloro-1-methyl-2-oxo-1,2-dihydro-1,5-naphthyridine-3-carbonitrile] | 120000 | 51 | 680
3 | Cn1c(=O)c(C#N)c(N2CCN(Cc3cc(OC(F)(F)F)ccc3O)CC2)c2nc(Br)ccc21 [Example 270, 6-bromo-4-(4-{[2-hydroxy-5-(trifluoromethoxy)phenyl]methyl}piperazin-1-yl)-1-methyl-2-oxo-1,2-dihydro-1,5-naphthyridine-3-carbonitrile] | > 240000 | 59 | 190
4 | Cn1c(=O)c(C#N)c(N2CCN(Cc3c(O)cccc3Br)CC2)c2nc(Br)ccc21 [Example 271, 6-bromo-4-{4-[(2-bromo-6-hydroxyphenyl)methyl]piperazin-1-yl}-1-methyl-2-oxo-1,2-dihydro-1,5-naphthyridine-3-carbonitrile] | 110000 | 61 | 1100
5 | Cn1c(=O)c(C#N)c(N2CCN(Cc3ccc(Br)cc3O)CC2)c2nc(Cl)ccc21 [Example 276, 4-{4-[(4-bromo-2-hydroxyphenyl)methyl]piperazin-1-yl}-6-chloro-1-methyl-2-oxo-1,2-dihydro-1,5-naphthyridine-3-carbonitrile] | > 240000 | 79 | 12
6 | Cn1c(=O)c(C#N)c(N2CCN(Cc3cccc(Cl)c3O)CC2)c2nc(Br)ccc21 [Example 278, 6-bromo-4-{4-[(3-chloro-2-hydroxyphenyl)methyl]piperazin-1-yl}-1-methyl-2-oxo-1,2-dihydro-1,5-naphthyridine-3-carbonitrile] | > 81000 | 87 | 350
7 | Cn1c(=O)c(C#N)c(N2CCN(Cc3c(O)cccc3F)CC2)c2nc(Cl)ccc21 [Example 280, 6-chloro-4-{4-[(2-fluoro-6-hydroxyphenyl)methyl]piperazin-1-yl}-1-methyl-2-oxo-1,2-dihydro-1,5-naphthyridine-3-carbonitrile] | > 240000 | 92 | 76
8 | Cn1c(=O)c(C#N)c(N2CCN(Cc3cc(Br)ccc3O)CC2)c2nc(Br)ccc21 [Example 282, 6-bromo-4-{4-[(5-bromo-2-hydroxyphenyl)methyl]piperazin-1-yl}-1-methyl-2-oxo-1,2-dihydro-1,5-naphthyridine-3-carbonitrile] | > 240000 | 94 | 220
9 | Cn1c(=O)c(C#N)c(N2CCN(Cc3ccccc3NC(=O)OC(C)(C)C)CC2)c2nc(Br)ccc21 [Example 284, tert-butyl N-(2-{[4-(6-bromo-3-cyano-1-methyl-2-oxo-1,2-dihydro-1,5-naphthyridin-4-yl)piperazin-1-yl]methyl}phenyl)carbamate] | > 240000 | 98 | 1000
10 | Cn1c(=O)c(C#N)c(N2CCN(Cc3ccccc3OC(F)(F)F)CC2)c2nc(Cl)ccc21 [Example 285, 6-chloro-1-methyl-2-oxo-4-(4-{[2-(trifluoromethoxy)phenyl]methyl}piperazin-1-yl)-1,2-dihydro-1,5-naphthyridine-3-carbonitrile] | > 240000 | 100 | 910
11 | Cc1ccc2c(n1)c(N1CCN(Cc3cccc(Br)c3O)CC1)c(C#N)c(=O)n2C [Example 286, 4-{4-[(3-bromo-2-hydroxyphenyl)methyl]piperazin-1-yl}-1,6-dimethyl-2-oxo-1,2-dihydro-1,5-naphthyridine-3-carbonitrile] | 140000 | 100 | 1200
12 | Cc1ccc(CN2CCN(c3c(C#N)c(=O)n(C)c4ccc(Cl)nc34)CC2)cc1F [Example 289, 6-chloro-4-{4-[(3-fluoro-4-methylphenyl)methyl]piperazin-1-yl}-1-methyl-2-oxo-1,2-dihydro-1,5-naphthyridine-3-carbonitrile] | > 81000 | 110 | 250
13 | Cc1cc(F)cc(CN2CCN(c3c(C#N)c(=O)n(C)c4ccc(Cl)nc34)CC2)c1 [Example 290, 6-chloro-4-{4-[(3-fluoro-5-methylphenyl)methyl]piperazin-1-yl}-1-methyl-2-oxo-1,2-dihydro-1,5-naphthyridine-3-carbonitrile] | > 240000 | 110 | 2200
14 | Cn1c(=O)c(C#N)c(N2CCN(Cc3cc(F)cc(F)c3)CC2)c2nc(Cl)ccc21 [Example 291, 6-chloro-4-{4-[(3,5-difluorophenyl)methyl]piperazin-1-yl}-1-methyl-2-oxo-1,2-dihydro-1,5-naphthyridine-3-carbonitrile] | > 81000 | 110 | 330
15 | Cn1c(=O)c(C#N)c(N2CCN(Cc3c(O)cccc3F)CC2)c2nc(Br)ccc21 [Example 294, 6-bromo-4-{4-[(2-fluoro-6-hydroxyphenyl)methyl]piperazin-1-yl}-1-methyl-2-oxo-1,2-dihydro-1,5-naphthyridine-3-carbonitrile] | > 240000 | 140 | 110
16 | Cc1ccc2c(n1)c(N1CCN(Cc3cc(Cl)ccc3O)CC1)c(C#N)c(=O)n2C [Example 296, 4-{4-[(5-chloro-2-hydroxyphenyl)methyl]piperazin-1-yl}-1,6-dimethyl-2-oxo-1,2-dihydro-1,5-naphthyridine-3-carbonitrile] | 150000 | 150 | 980
17 | COc1ccccc1CN1CCN(c2c(C#N)c(=O)n(C)c3ccc(Br)nc23)CC1 [Example 297, 6-bromo-4-{4-[4(2-methoxyphenyl)methyl]piperazin-1-yl}-1-methyl-2-oxo-1,2-dihydro-1,5-naphthyridine-3-carbonitrile] | > 240000 | 160 | 890
18 | Cn1c(=O)c(C#N)c(N2CCN(Cc3cc(F)cc(F)c3O)CC2)c2nc(Cl)ccc21 [Example 298, 6-chloro-4-{4-[(3,5-difluoro-2-hydroxyphenyl)methyl]piperazin-1-yl}-1-methyl-2-oxo-1,2-dihydro-1,5-naphthyridine-3-carbonitrile] | 27000 | 160 | 830
19 | Cn1c(=O)c(C#N)c(N2CCN(Cc3cccc4c3NCC4)CC2)c2nc(Br)ccc21 [Example 299, 6-bromo-4-{4-[(2,3-dihydro-1H-indol-7-yl)methyl]piperazin-1-yl}-1-methyl-2-oxo-1,2-dihydro-1,5-naphthyridine-3-carbonitrile] | > 240000 | 160 | 570
20 | Cn1c(=O)c(C#N)c(N2CCN(Cc3cccc(Cl)c3)CC2)c2nc(Cl)ccc21 [Example 302, 6-chloro-4-{4-[(3-chlorophenyl)methyl]piperazin-1-yl}-1-methyl-2-oxo-1,2-dihydro-1,5-naphthyridine-3-carbonitrile] | > 81000 | 180 | 610
21 | Cn1c(=O)c(C#N)c(N2CCN(Cc3cccc4cc[nH]c34)CC2)c2nc(Cl)ccc21 [Example 303, 6-chloro-4-{4-[_(1H-indol-7-yl)methyl]piperazin-1-yl}-1-methyl-2-oxo-1,2-dihydro-1,5-naphthyridine-3-carbonitrile] | > 240000 | 180 | 900
22 | Cn1c(=O)c(C#N)c(N2CCN(Cc3cccc(F)c3O)CC2)c2nc(Cl)ccc21 [Example 306, 6-chloro-4-{4-[(3-fluoro-2-hydroxyphenyl)methyl]piperazin-1-yl}-1-methyl-2-oxo-1,2-dihydro-1,5-naphthyridine-3-carbonitrile] | > 240000 | 210 | 200
23 | Cn1c(=O)c(C#N)c(N2CCN(Cc3cc(Cl)cc(Cl)c3O)CC2)c2nc(Cl)ccc21 [Example 307, 6-chloro-4-{4-[(3,5-dichloro-2-hydroxyphenyl)methyl]piperazin-1-yl}-1-methyl-2-oxo-1,2-dihydro-1,5-naphthyridine-3-carbonitrile] | > 81000 | 210 | 1800
24 | Cn1c(=O)c(C#N)c(N2CCN(Cc3ccc(Cl)cc3Cl)CC2)c2nc(Cl)ccc21 [Example 310, 6-chloro-4-{4-[(2,4-dichlorophenyl)methyl]piperazin-1-yl}-1-methyl-2-oxo-1,2-dihydro-1,5-naphthyridine-3-carbonitrile] | > 240000 | 220 | 970
25 | COc1cccc(O)c1CN1CCN(c2c(C#N)c(=O)n(C)c3ccc(Br)nc23)CC1 [Example 314, 6-bromo-4-{4-[(2-hydroxy-6-methoxyphenyl)methyl]piperazin-1-yl}-1-methyl-2-oxo-1,2-dihydro-1,5-naphthyridine-3-carbonitrile] | 82000 | 250 | 170
26 | Cn1c(=O)c(C#N)c(N2CCN(Cc3ccccc3O)CC2)c2nc(C#N)ccc21 [Example 317, 8-{4-[(2-hydroxyphenyl)methyl]piperazin-1-yl}-5-methyl-6-oxo-5,6-dihydro-1,5-naphthyridine-2,7-dicarbonitrile] | 34000 | 290 | 160
27 | Cn1c(=O)c(C#N)c(N2CCN(Cc3cc(F)ccc3F)CC2)c2nc(Cl)ccc21 [Example 318, 6-chloro-4-{4-[(2,5-difluorophenyl)methyl]piperazin-1-yl}-1-methyl-2-oxo-1,2-dihydro-1,5-naphthyridine-3-carbonitrile] | 140000 | 290 | 850
